Test results from patent publication US20120101163A1, “COMPOSITION FOR INHIBITING CANCER METASTASIS” (TAIPEI MEDICAL UNIVERSITY, priority 2010, published 2012).

Test system: matrix metalloproteinase-2
Experiment: RT-PCR, MMP-2 gene expression in HT 1080 cells
Format: cell-based, Human
Protocol: 7. RNA Extraction and Reverse Transcription-Polymerase Chain Reaction (RT-PCR)
HT 1080 cells with appropriate cell numbers were cultured in 60 mm culturing plates for 6 hours, respectively. After the cells were attached onto the bottom of the plate and formed a monolayer, the medium in the plate was removed. Fresh serum free mediums with different concentrations of a test sample were added to the plates, respectively, and 100 nM PMA was added to each plate to induce the cells to express great quantities of matrix metalloproteinase-2 and matrix metalloproteinase-9, and the plates were placed in a temperature of 37° C. for 6 hours. After that, the total RNA of the cells were extracted with the TRIzol reagent and reverse transcripted by a reverse transcriptase to synthesize cDNA. The synthesize cDNA was used as a template to perform GADPH, matrix metalloproteinase-2 and matrix metalloproteinase-9 PCR amplifications.

## NC(CCC(=O)NO)C(=O)O [DH, L-Glutamic acid γ-hydroxamate]
HT 1080 cells, 0.4, 0.8, 1.2, and 1.6, 6 hours, RT-PCR
  gene expression (mRNA) of matrix metalloproteinase-2: decreased
About 0.1-2 mM, stated as embodiment, 'and/or' MMP-9
  inhibition rate to the gene transcriptional expression of metalloproteinase-2 of a cancer cell: 20-80%
